Assay results as given in PMC10819430, “Binding Affinity and Mechanism of Six PFAS with Human Serum Albumin: Insights from Multi-Spectroscopy, DFT and Molecular Dynamics Approaches” (Toxics, 2024).
“Also recorded” adds a separate entry of the source. Read-outs that look alike come from different tables or passages of the source.

Columns and labels:
HSA [1] = target: T1, HSA (Homo sapiens, UniProt P02768); test: 3D-EEM fluorescence spectra of HSA–PFAS; settings: for 3D-EEM Peak A Position λex/λem / 3D-EEM Peak B Position λex/λem / 3D-EEM Peak A Intensity F / 3D-EEM Peak B Intensity F: HSA 1 × 10^−6, PFAS 1.8 × 10^−5 mol·L^−1; for 3D-EEM Peak A Intensity F: HSA alone 673.66; for 3D-EEM Peak B Intensity F: HSA alone 996.906
T1 construct: HSA (≥96%) and six PFAS were all purchased from Aladdin Chemicals (Shanghai, China); purchased Aladdin Chemicals (Shanghai, China)
T1 sequence (P02768 25-609): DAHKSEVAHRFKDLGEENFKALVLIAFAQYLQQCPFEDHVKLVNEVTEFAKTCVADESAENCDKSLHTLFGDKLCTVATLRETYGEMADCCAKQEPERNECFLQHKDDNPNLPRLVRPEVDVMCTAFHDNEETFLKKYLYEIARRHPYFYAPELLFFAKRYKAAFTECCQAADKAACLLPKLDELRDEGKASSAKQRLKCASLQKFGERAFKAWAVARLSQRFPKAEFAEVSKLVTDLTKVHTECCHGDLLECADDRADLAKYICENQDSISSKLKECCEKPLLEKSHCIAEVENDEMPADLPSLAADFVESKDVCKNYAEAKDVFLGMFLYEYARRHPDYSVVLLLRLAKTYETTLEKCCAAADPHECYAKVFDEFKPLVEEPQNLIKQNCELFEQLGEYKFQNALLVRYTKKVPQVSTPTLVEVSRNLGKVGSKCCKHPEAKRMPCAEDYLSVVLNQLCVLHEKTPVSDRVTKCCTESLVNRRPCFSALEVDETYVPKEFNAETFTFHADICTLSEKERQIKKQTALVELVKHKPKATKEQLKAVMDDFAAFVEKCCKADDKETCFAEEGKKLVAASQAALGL
Protocol: The 3D-EEM spectra were recorded using specific scanning parameters at the scanning rate of 2400 nm·min^−1, an […] with 5 nm increments, and an emission of 280–550 nm with 2 nm increments. The concentrations of PFAS and HSA were set at 18 × 10^−6 mol·L^−1 and 1 × 10^−6 mol·L^−1, respectively.

HSA [2] = target: T1, HSA; test: Circular dichroism (CD) spectrum, secondary structure of HSA; settings: HSA:PFAS 1:18, 298 K; for HSA secondary structure: β-Sheet: HSA alone 4.9; for HSA secondary structure: β-Turn: HSA alone 16.9; for HSA secondary structure: Random Coil: HSA alone 36.7; for HSA secondary structure: α-Helix: HSA alone 41.6
Description: CD measurements (190–260 nm) were taken before and after the addition of PFAS to HSA using a J-815 CD spectrometer equipped with a PMT detector (JASCO, Tokyo, Japan). The protein concentration was set at 1 × 10^−6 mol/L, with a fixed HSA-to-PFAS concentration ratio of 1:18. The scanning rate was set to 100 nm/min with 0.5 nm increments, and the photometric mode of HT. Each sample was scanned three times. The blank buffer control was automatically subtracted during the scanning process. All tests were carried out at 298 K. The CONTIN analysis method from the DichroWeb was employed to determine the contents of the protein’s secondary structure.

[3] = target: T2, Human Serum Albumin (HSA) (Homo sapiens, UniProt P02768); test: Fluorescence quenching of HSA by PFAS (Stern–Volmer, double logarithmic and Van't Hoff analysis); assay type: binding; settings: for quenching of HSA fluorescence intensity: PFAS 1.8 × 10^−5 mol·L^−1, HSA 1 × 10^−6 mol·L^−1, 298 K; for ΔH / ΔS: Van't Hoff, 298–310 K; for HSA fluorescence peak position after PFAS addition (blue shift from 337 nm): as the concentration of PFAS increases; for affinity for HSA: fluorescence quenching experiments; for main interaction force from thermodynamic analysis: signs of ΔH and ΔS
T2 construct: HSA (≥96%) and six PFAS were all purchased from Aladdin Chemicals (Shanghai, China); purchased Aladdin Chemicals (Shanghai, China)
T2 sequence (P02768 25-609): as above
Protocol: Fluorescence quenching experiments greatly benefit studies on the interactions between ligands and proteins. Initially, 3 mL of HSA stock solution was put into a 10 mm square quartz cuvette. Following that, PFAS stock solution was gradually added to achieve various final concentrations, namely 0, 3, 6, 9, 12, 15, 18 × 10^−6 mol·L^−1. By incrementally increasing the molar ratio of PFAS vs. HSA up to 18, their binding characteristics can be better investigated.
A thermostat (TR-01A, Bishui Corp, Beijing, China) was used to precisely control the solution temperature, which was set at 298, 304, and 310 K. This device includes a temperature controller and a metal heating cuvette module in conjunction with a fluorometer. This thermostat has a temperature range of 20–60 °C (293–333 K) and an accuracy of 0.1 °C Celsius. This step is critical for keeping the experimental conditions stable. Following that, the samples were fluorescence-scanned with a fluorometer (Cary Eclipse, Agilent, CA, USA). The excitation wavelength was set at 275 nm to efficiently stimulate tryptophan (Trp) and tyrosine (Tyr) residues. Additional test parameters include an emission of 275–500 nm, scanning rate of 1200 nm/min and PTV voltage of 700 v. Fluorescence quenching experiments were repeated three times, and the average values were taken for further calculation.
Fluorescence internal filtration (IFE) refers to the phenomenon where the fluorescence intensity decreases during fluorescence measurement due to the absorption of excitation or emission light by sample components (small molecules or proteins) in solution [19, 20]. This phenomenon is more obvious in the samples with a high concentration of adsorbent. A fluorescence correction formula was used in this study to correct the IFE effect on the data, as follows: Fcorr=Fobs×10^Aex+Aem/2 where Fcorr and Fobs are corrected and observed fluorescence emission intensities, respectively, Aex and Aem are UV-vis absorbances at the excitation and emission wavelengths.
The quenching constant can be calculated using the Stern–Volmer Equation (3). The results are shown in Table 2 and Figure 1: F0/F=1+Kqτ0=1+KsvQ where F0 and F refer to HSA fluorescence intensities without and with the quencher (PFAS solution); Kq is the biomacromolecule’s quenching rate constant; τ0 is the average fluorescence lifetime of the fluorescent molecule when the quencher PFAS is absent, usually taken as 10^−8 s; [Q] is the PFAS concentration; Ksv is the Stern–Volmer quenching constant; F0/F is the vertical axis; the Stern–Volmer curves of this system are 298, 304, and 310 K.
The double logarithmic formula can be used to calculate the binding constants and binding site numbers of HSA–PFAS complexes: logF0−F/F=logKb+nlogQ where F0 and F are parameters representing the initial fluorescence intensity and the fluorescence intensity after adding PFAS, respectively. The binding characteristics are represented by the binding constant, Kb, and the number of binding sites, n. The slope of the straight line is the number of binding sites, n, and the binding constant Kb is obtained from the exponent of the straight line’s intercept using the double logarithmic graph. Figure A2 and Table 2 show the calculation results.
The enthalpy change (∆H), entropy change (∆S), and free energy change (∆G) calculated from the Van’t Hoff equation [50] can be used to determine the type of interaction. lnKb=−ΔH/RT+ΔS/R ΔG=ΔH−TΔS=−RTlnKb where R represents the ideal gas constant (8.314 J·mol^−1·K^−1).

HSA [4] = target: T1, HSA; test: Competitive probe experiment (warfarin, ibuprofen, lidocaine); assay type: binding
Description: Competitive probe experiments are commonly used to identify specific binding sites in the structure of proteins. Three probe molecules known to bind to distinct binding sites on HSA were selected: warfarin (subdomain IIA), ibuprofen (subdomain IIIA), and lidocaine (subdomain IIB). These probe molecules would compete with PFAS for the same protein sites when binding with HSA. The potential binding sites can be inferred by monitoring and comparing changes in fluorescence intensity when probe molecules are present.

[5] = human body, cited from earlier work

Structure (SMILES)	3D-EEM Peak A Position λex/λem (HSA [1])	3D-EEM Peak B Position λex/λem (HSA [1])	3D-EEM Peak A Intensity F (HSA [1])	3D-EEM Peak B Intensity F (HSA [1])	HSA secondary structure: β-Sheet (HSA [2])	HSA secondary structure: β-Turn (HSA [2])	HSA secondary structure: Random Coil (HSA [2])	HSA secondary structure: α-Helix (HSA [2])	fluorescence quenching mechanism [3]	quenching of HSA fluorescence intensity [3]	KSV (Stern–Volmer quenching constant) ([3]; T = 298 K)	n (number of binding sites) ([3]; T = 298 K)	ΔG ([3]; T = 298 K)	Kq (quenching rate constant) ([3]; T = 298 K, τ0 taken as 10^−8 s)	KSV (Stern–Volmer quenching constant) ([3]; T = 304 K)	n (number of binding sites) ([3]; T = 304 K)	ΔG ([3]; T = 304 K)	Kq (quenching rate constant) ([3]; T = 304 K, τ0 taken as 10^−8 s)	KSV (Stern–Volmer quenching constant) ([3]; T = 310 K)	n (number of binding sites) ([3]; T = 310 K)	other results
O=C(O)C(F)(F)C(F)(F)C(F)(F)C(F)(F)C(F)(F)C(F)(F)C(F)(F)C(F)(F)F [PFNA, Perfluorononanoic Acid]	280/329	230/310	418.74 a.u.	800.96 a.u.	7.6%	15.1%	41.2%	36.2%	static quenching	30.6%	2.52 ± 0.10 × 10^4 L·mol^−1	1.51 ± 0.06	-9.398 kcal/mol	2.52 ± 0.10 × 10^12 L·mol^−1·s^−1	2.35 ± 0.11 × 10^4 L·mol^−1	1.18 ± 0.03	-7.376 kcal/mol	2.35 ± 0.11 × 10^12 L·mol^−1·s^−1	1.27 ± 0.04 × 10^4 L·mol^−1	1.10 ± 0.04	reduction of 3D-EEM peak A intensity (HSA [1]; after binding with HSA): 37.8%; reduction of 3D-EEM peak B intensity (HSA [1]; after binding with HSA): 19.7%; ΔG ([3]; T = 310 K): -7.087 kcal/mol; Kq (quenching rate constant) ([3]; T = 310 K, τ0 taken as 10^−8 s): 1.27 ± 0.04 × 10^12 L·mol^−1·s^−1; ΔH [3]: -66.503 ± 1.3 kcal/mol; ΔS [3]: −805.8 ± 13.8 J·mol^−1·K^−1; HSA fluorescence peak position after PFAS addition (blue shift from 337 nm) [3]: 317 nm; affinity for HSA [3]: high affinity; main interaction force from thermodynamic analysis [3]: hydrogen bonds or van der Waals interactions; also recorded: hydrogen bonds or van der Waals forces; φ (rate of decrease in Kb) (HSA [4]; ibuprofen probe): 13.8%; φ (rate of decrease in Kb) (HSA [4]; lidocaine probe): 43.9%; φ (rate of decrease in Kb) (HSA [4]; warfarin probe): 98.3%
O=C(O)C(F)(F)OC(F)(F)C(F)(F)OC(F)(F)C(F)(F)OC(F)(F)F [PFO3DA, Perfluoro-3,6,9-trioxadecanoic Acid]	280/329	230/325	525.07 a.u.	886.91 a.u.	5.8%	17.3%	40.6%	36.4%	static quenching	15.3%	1.05 ± 0.06 × 10^4 L·mol^−1	1.25 ± 0.03	-7.091 kcal/mol	1.05 ± 0.06 × 10^12 L·mol^−1·s^−1	1.03 ± 0.06 × 10^4 L·mol^−1	1.33 ± 0.02	-6.479 kcal/mol	1.03 ± 0.06 × 10^12 L·mol^−1·s^−1	0.87 ± 0.04 × 10^4 L·mol^−1	1.10 ± 0.03	ΔG ([3]; T = 310 K): -6.348 kcal/mol; Kq (quenching rate constant) ([3]; T = 310 K, τ0 taken as 10^−8 s): 0.87 ± 0.04 × 10^12 L·mol^−1·s^−1; ΔH [3]: -25.471 ± 0.937 kcal/mol; ΔS [3]: −259.2 ± 9.4 J·mol^−1·K^−1; affinity for HSA [3]: high affinity; main interaction force from thermodynamic analysis [3]: hydrogen bonds or van der Waals interactions; also recorded: hydrogen bonds or van der Waals forces; φ (rate of decrease in Kb) (HSA [4]; ibuprofen probe): 25.8%; φ (rate of decrease in Kb) (HSA [4]; lidocaine probe): 11.8%; φ (rate of decrease in Kb) (HSA [4]; warfarin probe): 95.1%
O=C(O)C(F)(F)C(F)(F)C(F)(F)C(F)(F)C(F)(F)C(F)(F)C(F)(F)F [PFOA, Perfluorooctanoic Acid]	280/336	230/327	476.59 a.u.	812.58 a.u.	6.4%	15.8%	40.5%	37.2%	mixed quenching	20.1%	1.39 ± 0.07 × 10^4 L·mol^−1	1.26 ± 0.04	-7.302 kcal/mol	1.39 ± 0.07 × 10^12 L·mol^−1·s^−1	1.46 ± 0.09 × 10^4 L·mol^−1	1.31 ± 0.02	-7.851 kcal/mol	1.46 ± 0.09 × 10^12 L·mol^−1·s^−1	1.47 ± 0.11 × 10^4 L·mol^−1	1.47 ± 0.03	Kq (quenching rate constant) ([3]; 298 K): 1.39e+12 L/mol/s; ΔG ([3]; T = 310 K): -9.003 kcal/mol; Kq (quenching rate constant) ([3]; T = 310 K, τ0 taken as 10^−8 s): 1.47 ± 0.11 × 10^12 L·mol^−1·s^−1; ΔH [3]: 35.057 ± 1.53 kcal/mol; ΔS [3]: 593.3 ± 22.7 J·mol^−1·K^−1; HSA fluorescence peak position after PFAS addition (blue shift from 337 nm) [3]: 320 nm; affinity for HSA [3]: high affinity; main interaction force from thermodynamic analysis [3]: hydrophobic interactions; φ (rate of decrease in Kb) (HSA [4]; lidocaine probe): 8.1%; φ (rate of decrease in Kb) (HSA [4]; warfarin probe): 96.1%; average half-life ([5]; study on 19 PFAS): approximately 2.47 years; average half-life [5]: 3.8 years
O=S(=O)(O)C(F)(F)C(F)(F)C(F)(F)C(F)(F)C(F)(F)C(F)(F)C(F)(F)C(F)(F)F [PFOS, Perfluorooctanesulfonic acid]	–	–	–	–	–	–	–	–	–	–	–	–	–	–	–	–	–	–	–	–	average half-life ([5]; study on 19 PFAS): ~4.52 years; average half-life [5]: 5.4 years
